According to patent publication US6087334A, “Anti-diabetic peptides” (Amylin Pharmaceuticals, Inc., priority 1998, dated 2000):
Where a SMILES comes first, the peptide text is derived from it. Bridges are numbered along the chain shown (N, C = ends). The star is where a group is joined. Pentanoyl(4-Me) = CC(C)CCC(=O)*

Columns and labels:
[1] = target: T1, C1a receptor (C1a-type calcitonin receptor) (Rattus norvegicus, UniProt P32214); test: biochemical; settings: HEK293 plasma membranes, [35S]-GTPγS 200 pM; read-out: ED50 (nM) Example B (C1a GTPγS)
T1 construct: expressed in transfected cells
T1 sequence (P32214 25-479 isoform P32214-2 limits assumed): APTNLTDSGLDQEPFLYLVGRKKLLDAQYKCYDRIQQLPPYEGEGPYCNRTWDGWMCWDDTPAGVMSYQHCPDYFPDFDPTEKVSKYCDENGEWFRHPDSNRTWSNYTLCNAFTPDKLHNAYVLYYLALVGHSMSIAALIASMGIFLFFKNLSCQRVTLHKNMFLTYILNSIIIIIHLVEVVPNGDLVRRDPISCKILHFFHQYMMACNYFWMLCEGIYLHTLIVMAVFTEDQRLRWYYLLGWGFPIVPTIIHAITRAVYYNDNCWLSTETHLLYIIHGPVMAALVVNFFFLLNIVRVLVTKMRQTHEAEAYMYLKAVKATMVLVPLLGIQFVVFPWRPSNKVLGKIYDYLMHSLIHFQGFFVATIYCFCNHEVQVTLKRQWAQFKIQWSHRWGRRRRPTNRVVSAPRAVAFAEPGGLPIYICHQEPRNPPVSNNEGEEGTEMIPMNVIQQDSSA
Source text: Peptide compounds of the present invention may be evaluated for agonist activity using the procedures described in Example B. The plasma membrane preparation of a 7-transmembrane-G-protein coupled receptor (GPCR) contains not only the receptor but also the G-proteins which constitute the first step in the intracellular signal transduction process when the receptor is activated by an agonist ligand. […] Agonist activation of a GPCR is accompanied by displacement of GDP by GTP from this site. Thus, measurement of the binding of a radiolabelled ligand, namely [^35 S]-GTPγS, for this binding site constitutes a measure of agonist potency for a given ligand. For agonism at the C1a receptor, a similar membrane preparation to that described below for the C1a binding studies is used. C1a pcDNA construction and transfection were carried out as previously described (Albrandt et al. 1993, FEBS Letters, 325:225-232). HEK293 cell lines showing stable expression of the rat C1a-type calcitonin receptor (C1a/293) or the human C1a-type calcitonin receptor (1154/293) were selected by G418 resistance and limiting dilution culture methods. Plasma membranes were collected from homogenized HEK293 cells and used in the [^35 S]-GTPγS assay. Individual test peptides at concentrations spanning 6 log units starting at around […] were examined for their ability to bind [^35 S]-GTPγS. Maximum agonist-specific binding was measured in the presence of 1 μM human calcitonin, constitutive binding was measured in the presence of buffer alone. Peptide potencies (EC50 's for concentration response curves) were calculated by non-linear regression using Prism™ (version 2.01, GraphPAD Software, San Diego, Calif.).
[^35 S]-GTPγS C1a Agonist Studies
Evaluation of the agonist activity of compounds versus the C1a receptor was carried out as follows:
(§1) Reference peptides used in these studies were purchased from Bachem (Torrance, Calif.). All other chemicals were of the highest commercial grade. [^35 S]-GTPγS was purchased from NEN Life Science Products, Inc., Pittsburgh, Pa. [^125 I]-human calcitonin was purchased from Amersham Pharmacia Biotech, Inc., Piscataway, N.J.
(§2) Methods for C1a pcDNA construction and transfection have been previously described (Albrandt, et al. 1993, FEBS Letters, 325:225-232). HEK293 cell lines stably expressing the rat C1a-type calcitonin receptor (C1a/293) or the human C1a-type calcitonin receptor (1154/293) were selected by G418 resistance and limiting dilution culture methods.
(§3) Confluent cells were detached from tissue culture flasks by incubation with 5 mM EDTA in PBS. Cells were homogenized in ice-cold 20 mM HEPES, pH 7.4 with a Polytron homogenizer. Plasma membranes were collected using three cycles of washing in fresh buffer followed by centrifugation for 15 minutes at 48,000×g. The final membrane pellet was resuspended in 20 mM HEPES buffer containing 0.2 mM phenylmethylsulfonyl fluoride (PMSF) and stored at -70° C.
Assay buffer contained 1 μM GDP, 1 mM EDTA, 5 mM MgCl2, 20 mM Hepes, and 150 mM NaCl, pH 7.4. Membranes (7.5 μg membrane protein/well), [^35 S]-GTPγS (200 pM), and peptides were combined in 200 μL buffer in 96-well microtiter plates. After a 75 minute incubation at room temperature, well contents were harvested onto GF/B glass fiber pads using a Tomtec Mach II plate harvestor (Hamden, Conn.). Dried pads were combined with scintillant and counted on a Wallac LKB Beta Plate scintillation counter. For concentration response curves, samples were run in duplicate over a 6 log concentration range starting at 10^-6 M or 10^-7 M. Maximum agonist-specific binding was measured in the presence of 1 μM human calcitonin, constitutive binding was measured in the presence of buffer alone.
Peptide potencies (1C50 's for competitive binding, and EC50 's for concentration response curves) were calculated by non-linear regression using Prism (version 2.01, GraphPAD Software, San Diego, Calif.).

[2] = target: T1, C1a receptor (C1a-type calcitonin receptor); test: C1a/293 competitive binding, displacement of [125I]-human calcitonin (Example C); settings: HEK293 plasma membranes (C1a/293), [125I]-human calcitonin 20 pM
Procedure: Peptide compounds of the present invention may be evaluated for binding to the C1a receptor using the procedures described in Example C. The C1a receptor is the predominant mammalian calcitonin receptor subtype. C1a pcDNA construction and transfection were carried out as previously described (Albrandt et al. 1993, FEBS Letters, 325:225-232). HEK293 cell lines showing stable expression of the rat C1a-type calcitonin receptor (C1a/293) or the human C1a-type calcitonin receptor (1154/293) were selected by G418 resistance and limiting dilution culture methods. Plasma membranes were collected from homogenized HEK293 cells and used in the receptor binding assay. Individual test peptides at concentrations spanning 6 log units starting at around 10^-6 M were examined for their ability to displace [^125 I]-human calcitonin from the plasma membrane preparation using a 96-well microtiter plate format and scintillation counting with a Wallac LKB Beta plate counter. Competitive binding curves were constructed. Non-specific binding was measured in the presence of 100 nM calcitonin. Peptide potencies (IC50 's for competitive binding) were calculated by non-linear regression using Prism™ (version 2.01, GraphPAD Software, San Diego, Calif.).
C1a/293 Competitive Binding Studies:
Compounds were evaluated for competition in binding to the C1a receptor as follows:
as §1
as §2, with “1993).” for “1993, FEBS Letters, 325:225-232).”
as §3
Assay buffer contained 5 μg/mL bestatin, 1 μg/mL phosphoramidon, 1 mg/mL bovine serum albumin (fraction V), 1 mg/mL bacitracin, 1 mM MgCl2, and 20 mM HEPES, pH 7.4. Membranes (2-5 μg membrane protein/well), [^125 I]-human calcitonin (20 pM), and peptides were combined in 200 μL buffer in 96-well microtiter plates. After a 60 minute incubation at room temperature, well contents were harvested onto polyethyleneimine-treated GF/B glass fiber pads using a Tomtec Mach II plate harvestor (Hamden, Conn.). Dried pads were combined with scintillant and counted on a Wallac LKB Beta Plate scintillation counter (Gaithersburg, Md.). For competitive binding curves, samples were run in duplicate over a 6 log concentration range starting at 10^-6 or 10^-7 M. Non-specific binding was measured in the presence of 100 nM human calcitonin.

SMILES | EC50 [1] [nM] | IC50 [2] [nM]
CC(C)C[C@H](NC(=O)[C@H](CCCNC(=N)N)NC(=O)[C@H](CCC(N)=O)NC(=O)[C@@H](NC(=O)[C@H](C)NC(=O)[C@@H]1CSSC[C@H](NC(=O)[C@@H](N)CCCCN)C(=O)N[C@@H](CC(N)=O)C(=O)N[C@@H](C(C)C)C(=O)N[C@@H](C)C(=O)N[C@@H]([C@@H](C)O)C(=O)N1)[C@@H](C)O)C(=O)N[C@@H](C)C(=O)N[C@@H](CC(N)=O)C(=O)N[C@@H](Cc1ccccc1)C(=O)N[C@@H](CC(C)C)C(=O)N[C@H](C(=O)N[C@@H](CCCNC(=N)N)C(=O)N[C@@H](CO)C(=O)N[C@@H](CO)C(=O)NCC(=O)N[C@@H](Cc1ccc(O)cc1)C(N)=O)C(C)C [Example 2] (H-KCNVATCATQRLANFLVRSSGY-NH2; disulfide 2-7) | 2.6 | 0.128
CC(C)CCC(=O)N[C@@H](CC(C)C)C(=O)N[C@@H](CO)C(=O)N[C@H](C(=O)N[C@@H](C)C(=O)N[C@@H](C)C(=O)N[C@H](C(=O)N[C@@H](C)C(=O)N[C@@H](CCCNC(=N)N)C(=O)N[C@@H](CC(C)C)C(=O)N[C@@H](C)C(=O)N[C@@H](C)C(=O)N[C@@H](Cc1ccccc1)C(=O)N[C@@H](CC(C)C)C(=O)N[C@@H](C)C(=O)N[C@@H](CCCNC(=N)N)C(=O)N[C@@H](CO)C(N)=O)[C@@H](C)O)[C@@H](C)O [Example 4] ({Pentanoyl(4-Me)}-LSTAATARLAAFLARS-NH2) | 0.73 | 0.66
CC(C)C[C@H](NC(=O)[C@H](CCCNC(=N)N)NC(=O)[C@H](C)NC(=O)[C@@H](NC(=O)[C@H](C)NC(=O)[C@@H]1CSSC[C@H](N)C(=O)N[C@@H](CC(N)=O)C(=O)N[C@@H]([C@@H](C)O)C(=O)N[C@@H](C)C(=O)N[C@@H]([C@@H](C)O)C(=O)N1)[C@@H](C)O)C(=O)N[C@@H](C)C(=O)N[C@@H](C)C(=O)N[C@@H](Cc1ccccc1)C(=O)N[C@@H](CC(C)C)C(=O)N[C@@H](C)C(=O)N[C@@H](CCCNC(=N)N)C(N)=O [Example 7] (H-CNTATCATARLAAFLAR-NH2; disulfide 1-6) | 2.2 | 2.7
CC(C)C[C@H](NC(=O)[C@H](CCCNC(=N)N)NC(=O)[C@H](CCC(N)=O)NC(=O)[C@@H](NC(=O)[C@H](C)NC(=O)[C@@H]1CSSC[C@H](NC(=O)[C@@H](N)CCCCN)C(=O)N[C@@H](CC(N)=O)C(=O)N[C@@H]([C@@H](C)O)C(=O)N[C@@H](C)C(=O)N[C@@H]([C@@H](C)O)C(=O)N1)[C@@H](C)O)C(=O)N[C@@H](C)C(=O)N[C@@H](C)C(=O)N[C@@H](Cc1ccccc1)C(=O)N[C@@H](CC(C)C)C(=O)N[C@H](C(=O)N[C@@H](CCCNC(=N)N)C(=O)N[C@@H](CO)C(=O)N[C@@H](CO)C(=O)NCC(=O)N[C@@H](Cc1ccc(O)cc1)C(N)=O)C(C)C [Example 8] (H-KCNTATCATQRLAAFLVRSSGY-NH2; disulfide 2-7) | 4.4 | 3.4
CC(C)C[C@H](NC(=O)[C@H](CCCNC(=N)N)NC(=O)[C@H](CCC(N)=O)NC(=O)[C@@H](NC(=O)[C@H](C)NC(=O)[C@@H]1CSSC[C@H](NC(=O)[C@@H](N)CCCCN)C(=O)N[C@@H](CC(N)=O)C(=O)N[C@@H]([C@@H](C)O)C(=O)N[C@@H](C)C(=O)N[C@@H]([C@@H](C)O)C(=O)N1)[C@@H](C)O)C(=O)N[C@@H](C)C(=O)N[C@@H](CC(N)=O)C(=O)N[C@@H](Cc1ccccc1)C(=O)N[C@@H](CC(C)C)C(=O)N[C@H](C(=O)N[C@@H](CCCNC(=N)N)C(=O)N[C@@H](CO)C(=O)NCC(=O)N[C@@H](Cc1ccc(O)cc1)C(N)=O)C(C)C [Example 9] (H-KCNTATCATQRLANFLVRSGY-NH2; disulfide 2-7) | 8.6 | 4.1
